According to article PMC12426935, “On-Cell Saturation Transfer Difference NMR Spectroscopy on Ion Channels: Characterizing Negative Allosteric Modulator Binding Interactions of P2X7” (Journal of the American Chemical Society, 2025):
Where two headings read alike, the source gives them in different places.

What was measured:
[1] = target: T1, rat P2X7 (rP2X7) (Rattus norvegicus, UniProt Q64663); experiment: fura-2 intracellular calcium assay on HEK-293 stable cell line expressing rat P2X7; format: cell-based; settings: Rat P2X7 (Table 1), n = 3
T1 construct: expressed in transfected cells
T1 sequence (Q64663 1-595): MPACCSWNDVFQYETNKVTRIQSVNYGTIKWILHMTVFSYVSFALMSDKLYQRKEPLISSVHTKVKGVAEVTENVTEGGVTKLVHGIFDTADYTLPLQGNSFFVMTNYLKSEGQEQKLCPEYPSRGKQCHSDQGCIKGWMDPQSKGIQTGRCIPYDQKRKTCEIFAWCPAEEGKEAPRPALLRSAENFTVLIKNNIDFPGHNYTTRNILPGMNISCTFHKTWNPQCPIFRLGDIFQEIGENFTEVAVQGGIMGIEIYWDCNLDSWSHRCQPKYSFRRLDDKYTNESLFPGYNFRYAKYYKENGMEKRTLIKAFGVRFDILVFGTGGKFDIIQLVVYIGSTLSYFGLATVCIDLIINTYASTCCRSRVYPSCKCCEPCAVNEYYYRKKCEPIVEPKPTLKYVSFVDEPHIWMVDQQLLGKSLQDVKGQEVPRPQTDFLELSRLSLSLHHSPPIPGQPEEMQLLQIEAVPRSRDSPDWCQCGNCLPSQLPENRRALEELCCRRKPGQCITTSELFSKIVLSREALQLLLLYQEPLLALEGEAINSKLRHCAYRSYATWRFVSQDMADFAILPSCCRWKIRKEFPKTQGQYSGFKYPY
Description: (§1) Genetically edited HEK-293 cells lacking P2Y2 receptors were used to generate stable cell lines expressing human P2X7 (hP2X7), mouse P2X7 (mP2X7), rat P2X7 (rP2X7), or mutants of the hP2X7 NAM site (F88A, M105A, and F103A). Transfection was performed using lipofectamine 2000 (Fisher Scientific), and cells were subjected to Geneticin (800 μg/mL) selection for 2–3 weeks. This was followed by single cell cloning by limiting dilution in 96-well plates. Individual clones were selected for further study based on ATP-induced TO-PRO-3 uptake on a BD Cytoflex flow cytometer. Cell lines were maintained in DMEM:F12 media supplemented with 10% fetal bovine serum (PanBiotech), penicillin and streptomycin (Fisher Scientific) and kept in a humidified incubator with 5% CO2. Stable P2X7-expressing cells were kept under Geneticin selection at a concentration of 400 μg/mL. Passaging was performed twice weekly using 0.25% Trypsin-EDTA (Fisher Scientific).
(§2) P2X7 responses were measured by monitoring intracellular calcium responses using fura-2AM loaded cells. Cells were plated at 2–2.5 × 10^4 cells/well the day before experiments in 96-well plates (NUNC) coated with 50 μg/mL poly-D-lysine (Merck Millipore). A loading buffer containing 2 μM fura-2AM (HelloBio) and 250 μM sulfinpyrazone (Merck Millipore) in a low divalent buffer (145 mM NaCl, 5 mM KCl, 0.2 mM CaCl2, 10 mM HEPES, 13 mM glucose, pH 7.3) was added to cells for 45 min at 37 °C. After loading, the buffer was removed and replaced with calcium-containing extracellular solution (145 mM NaCl, 5 mM KCl, 2 mM CaCl2, 10 mM HEPES, 13 mM glucose, pH 7.3). Responses were measured using a Flexstation 3 plate reader (Molecular Devices) with dual excitation wavelengths of 340 and 380 nm and single emission wavelength of 510 nm. The sample interval was 3.5 s, and each well was recorded for 180 s. Fura-2 ratios were calculated in Softmax Pro v5.4; zero baseline was applied, and responses were measured as normalized area under the curve (AUC). Dose inhibition curves were plotted using GraphPad Prism v6 nonlinear regression (three parameter fit) and log IC50 values reported.

[2] = target: T2, F103A hP2X7 (Homo sapiens, UniProt Q99572, F103A); experiment: fura-2 intracellular calcium assay on HEK-293 stable cell line expressing NAM-site mutant F103A hP2X7; format: cell-based; settings: for IC50: n = 3
T2 sequence (Q99572 1-595 F103A): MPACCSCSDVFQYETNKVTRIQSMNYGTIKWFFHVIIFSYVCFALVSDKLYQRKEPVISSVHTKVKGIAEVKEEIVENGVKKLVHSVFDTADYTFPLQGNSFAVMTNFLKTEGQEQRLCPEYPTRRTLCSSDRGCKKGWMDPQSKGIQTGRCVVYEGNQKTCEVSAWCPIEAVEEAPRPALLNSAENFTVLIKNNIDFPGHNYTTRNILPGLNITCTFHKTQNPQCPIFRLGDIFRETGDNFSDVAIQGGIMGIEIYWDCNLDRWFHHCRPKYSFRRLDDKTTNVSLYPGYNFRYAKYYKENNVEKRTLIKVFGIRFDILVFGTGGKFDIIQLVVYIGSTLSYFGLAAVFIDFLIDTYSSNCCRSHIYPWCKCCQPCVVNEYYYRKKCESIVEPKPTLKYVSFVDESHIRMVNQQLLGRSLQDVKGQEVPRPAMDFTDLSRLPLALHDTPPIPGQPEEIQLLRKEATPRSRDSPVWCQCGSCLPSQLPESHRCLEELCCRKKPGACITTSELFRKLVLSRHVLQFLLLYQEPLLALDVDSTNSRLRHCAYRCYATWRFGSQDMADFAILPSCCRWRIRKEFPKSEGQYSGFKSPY
Description: as §1, with “Transfection” for “Genetically edited HEK-293 cells lacking P2Y2 receptors were used to generate stable cell lines expressing human P2X7 (hP2X7), mouse P2X7 (mP2X7), rat P2X7 (rP2X7), or mutants of the hP2X7 NAM site (F88A, M105A, and F103A). Transfection”
as §2

## O=C(NCC1(N2CCN(c3ccccc3)CC2)CCOCC1)c1cccnc1Sc1ccccc1 [JNJ-47965567]
[1]; log IC50 ± standard error, read-out: Log IC50 (converted)
  IC50: 17.4 nM
[1]; mean in brackets, read-out: mean IC50
  IC50: 17.6 nM
[2]; F103A hP2X7, agonist ATP, log IC50 ± standard error, read-out: Log IC50 (converted)
  IC50: 155 nM
[2]; F103A hP2X7, agonist ATP, mean in brackets, read-out: mean IC50
  IC50: 161 nM
[2]; F103A hP2X7, agonist BzATP, mean in brackets, read-out: mean IC50
  IC50: 59.1 nM
[2]; F103A hP2X7 vs hP2X7
  loss in potency (increase in IC50) at F103A relative to WT hP2X7: 10 fold
